Laboratory results taken from US20160282364A1, “ASSAY FOR INSULIN-DEGRADING ENZYME (IDE) INHIBITORS” (PRESIDENT AND FELLOWS OF HARVARD COLLEGE, priority 2013, published 2016).

Legend:
[1] = Plasma stability (1 h incubation); format: in vitro ADME; conditions: after 1 h
[2] = Tissue distribution by stable isotope dilution LC-MS; format: in vivo, mouse; conditions: mice, 80 mg/kg i.p.
Procedure: Stable isotope dilution LC-MS, pharmacokinetics, and tissue distribution measurements. […] Tissue samples ( 100 mg) fromb 6K-treated mice and vehicle controls were weighed and disrupted in Dounce homogenizers with PBS buffer (0.5 mL/100 mg sample), supplemented with 5 μM heavy-6bK and protease inhibitor cocktail (1 tablet/50 mL PBS, Roche diagnostics). The lysate was incubated on ice for 30 min, sonicated 5 min and centrifuged at 13,000 g for 5 min. The bulk of supernatant proteins were precipitated by denaturation at 95° C. for 5 min, removed by centrifugation.

[3] = test system: lean mice; test: Basal blood glucose and hormone levels without nutrient challenge; format: in vivo, mouse; conditions: 80 mg/kg, no glucose challenge, vs controls
Procedure: Glucose tolerance tests GTT and blood glucose measurements. Prior to a glucose challenge, the animals were fasted for 14 h (8 pm to 10 am, during the dark cycle) while individually housed in a clean cage with inedible wood-chip as a floor substrate, cotton bedding and a red plastic hut. Inhibitor, vehicle or control compounds were administered by a single intraperitoneal (i.p.) injection 30 min prior to the glucose challenge. Dextrose was formulated in sterile saline (3 g in 10 mL total), and the dose was adjusted by fasted body weight. For oGTT, 3.0 g/kg dextrose was administered by gavage at a dose of 10 mL/kg, and for ipGTT, 1.5 g/kg dextrose injected at a dose of 5 mL/kg. Blood glucose was measured using AccuCheck® meters (Aviva) from blood droplets obtained from a small nick at the tip of the tail, at timepoints −45, 0, 15, 30, 45, 60, 90 and 120 min with reference to the time of glucose injection. The area of the blood glucose response profile curve corresponding to each animal was calculated by the trapezoid method^17, using as reference each individual baseline blood glucose measurement prior to glucose administration (t=0). […] Values are reported as mean±S.E.M. Statistics were performed using a two-tail Student's t-test, and significance levels shown in the figures are *p<0.05 versus vehicle control group or **p<0.01 versus vehicle control group. […]

[4] = target: T1, hIDE WT (Homo sapiens, UniProt P14735); test: Small molecule-enzyme mutant complementation study, wild type; format: biochemical
T1 construct: The reported N-His6-tagged human IDE42-1019 construct; made in house; host or cells: E. coli Rosetta 2 (DE3) pLysS
Description: (§1) Protease assays with fluorogenic peptide substrates. […] All assay data points were obtained in duplicate.
(§2) Site-directed mutagenesis, expression, and purification of human IDE. The reported N-His6-tagged human IDE42-1019 construct was introduced in the expression plasmid pTrcHis-A (Invitrogen) using primers for uracil-specific excision reactions (USER) by Taq (NEB) and Pfu polymerases (PfuTurbo CX®, Agilent). The IDE gene was amplified with the primers 5′-[…]-dU-[…] and 5′-[…] G-dU-[…] (underlined sequences represent overhangs, and italics highlight the PCR priming sequence). Similarly, the pTrcHis-A vector was amplified for USER cloning with the primers 5′-[…] TGA-dU-[…] CCC and 5′-[…]-dU-[…]. Mutant IDE constructs were generated by amplifying the full vector construct with USER cloning primers introducing a mutant overhang (Table 5).
(§3) All PCR products were purified on microcentrifuge membrane columns (MinElute®, Qiagen) and quantified by UV absorbance (NanoDrop). Each fragment (0.2 pmol) was combined in a 10 μL reaction mixture containing 20 units DpnI (NEB), 0.75 units of USER mix (Endonuclease VIII and Uracil-DNA Glycosylase, NEB), 20 mM Tris-acetate, 50 mM potassium acetate, 10 mM magnesium acetate, 1 mM dithiothreitol at pH 7.9 (1× NEBuffer 4). The reactions were incubated at 37° C. for 45 min, followed by heating to 80° C. and slow cooling to 30° C. (0.2° C./s). The hybridized constructs were directly used for heat-shock transformation of chemically competent NEB turbo E. coli cells according to the manufacturer's instructions. Transformants were selected on carbenicillin LB agar, and isolated colonies were cultured overnight in 2 mL LB.
(§4) The plasmid was extracted using a microcentrifuge membrane column kit (Miniprep®, Qiagen), and the sequence of genes and vector junctions were confirmed by Sanger sequencing (Table 6). The plasmid constructs were transformed by heat-shock into chemically-competent expression strain Rosetta 2 (DE3) pLysS E. coli cells (EMD Millipore), and selected on carbenicillin/chloramphenicol LB agar. Cells transformed with IDE pTrcHis A constructs were cultured overnight at 37° C. in 2 XYT media (31 g in 1 L) containing 100 μg/mL ampicillin and 34 μg/mL chloramphenicol. Expression of His6-tagged IDE proteins was induced when the culture measured OD600 ˜0.6 by addition of isopropyl-β-D-1-thiogalactopyranoside (IPTG) to 1 mM final concentration, incubated overnight at 37° C., followed by centrifugation at 10,000 g for 30 min at 4° C.
(§5) Recombinant His6-tagged proteins were purified by Ni(II)-affinity chromatography (IMAC sepharose beads, GE Healthcare®) according to the manufacturer's instructions. The cell pellets were resuspended in pH 8.0 buffer containing 50 mM phosphate, 300 mM NaCl, 10 mM imidazole, 1% Triton X-100 and 1 mM tris(2-carboxyethyl)phosphine hydrochloride (TCEP), and were lysed by probe sonication for 4 min at 4° C., followed by clearing of cell debris by centrifugation at 10,000 g for 25 min at 4° C. The supernatant was incubated with Ni(II)-doped IMAC resin (2 mL) for 3 h at 4° C. The resin was washed twice with the cell resuspension/lysis buffer, and three times with pH 8.0 buffer containing 50 mM phosphate, 300 mM NaCl,50 mM imidazole and 1 mM TCEP. Elution was performed in 2 mL aliquots by raising the imidazole concentration to 250 mM and subsequently to 500 mM in the previous buffer. The fractions were combined and the buffer was exchanged to the recommended IDE buffer (R&D) using spin columns with 100 KDa molecular weight cut off membranes (Millipore). Protein yields were typically ˜10 μg/L, and >90% purity based on gel electrophoresis analysis (Coomassie stained).

[5] = target: T2, hIDE W199F (Homo sapiens, UniProt P14735, W199F); test: Small molecule-enzyme mutant complementation study; format: biochemical; conditions: W199F vs hIDE WT, batch 2
T2 construct: The reported N-His6-tagged human IDE42-1019 construct; made in house; host or cells: E. coli Rosetta 2 (DE3) pLysS
Description: as §1, §2, §3, §4, §5

T1 sequence (P14735 42-1019): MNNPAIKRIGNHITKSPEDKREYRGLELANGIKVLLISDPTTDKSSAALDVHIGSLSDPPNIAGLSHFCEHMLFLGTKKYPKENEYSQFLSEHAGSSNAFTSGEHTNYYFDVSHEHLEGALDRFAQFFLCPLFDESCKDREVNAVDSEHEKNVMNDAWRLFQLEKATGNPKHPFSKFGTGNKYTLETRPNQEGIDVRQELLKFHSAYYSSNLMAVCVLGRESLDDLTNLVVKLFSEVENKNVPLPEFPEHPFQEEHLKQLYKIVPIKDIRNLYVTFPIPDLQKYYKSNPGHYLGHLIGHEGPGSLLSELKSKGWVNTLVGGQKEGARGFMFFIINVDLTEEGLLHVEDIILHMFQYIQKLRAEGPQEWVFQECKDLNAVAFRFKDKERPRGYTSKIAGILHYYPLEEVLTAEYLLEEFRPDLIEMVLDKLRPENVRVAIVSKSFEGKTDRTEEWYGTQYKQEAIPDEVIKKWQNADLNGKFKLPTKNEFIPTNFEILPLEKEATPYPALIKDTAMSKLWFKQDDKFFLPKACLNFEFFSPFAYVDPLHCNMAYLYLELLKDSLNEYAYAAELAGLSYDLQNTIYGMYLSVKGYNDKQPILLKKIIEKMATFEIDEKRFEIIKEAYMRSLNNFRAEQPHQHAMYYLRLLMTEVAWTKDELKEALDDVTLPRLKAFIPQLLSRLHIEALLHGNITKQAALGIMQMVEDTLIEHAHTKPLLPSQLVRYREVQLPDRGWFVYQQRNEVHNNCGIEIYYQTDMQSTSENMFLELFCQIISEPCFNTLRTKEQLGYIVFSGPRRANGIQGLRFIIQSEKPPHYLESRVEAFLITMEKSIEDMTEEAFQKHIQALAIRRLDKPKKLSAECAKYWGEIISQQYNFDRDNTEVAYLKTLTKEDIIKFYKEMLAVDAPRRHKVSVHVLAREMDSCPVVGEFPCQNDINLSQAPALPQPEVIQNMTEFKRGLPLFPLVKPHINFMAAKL
T2 sequence (P14735 42-1019 W199F): as the sequence (P14735 42-1019) above, with W158F counted along it

SMILES | remaining after incubation with plasma [1] | biodistribution into plasma, liver, kidney, and pancreatic tissues [2] | detection in the brain ([2]; 10-fold concentrated samples) | basal blood glucose or hormone levels [3] | IC50 shift ([4]; batch 1 (reference)) | IC50 shift ([4]; batch 2 (reference)) | IC50 shift ([4]; batch 3 (reference)) | IC50 shift [5]
NCCCC[C@@H]1NC(=O)/C=C/C(=O)N[C@H](C(N)=O)CCCCNC(=O)[C@@H](Cc2ccc(C(=O)c3ccccc3)cc2)NC(=O)[C@H](CC2CCCCC2)NC1=O [Compound 6bK] | 74% | prompt biodistribution | did not detect | did not significantly alter | – | – | – | –
NC(=O)CCC1NC(=O)C=CC(=O)NC(C(N)=O)CCCCNC(=O)C(Cc2ccc(C(=O)c3ccccc3)cc2)NC(=O)C(CC2CCCCC2)NC1=O (centres unmarked) [Compound 6b] | – | – | – | – | 1.0 fold | 1.0 fold | 1.0 fold | 3.0 fold
